Experimental data published in patent EP4070856A1, “ORGANIC COMPOUNDS AND USES THEREOF” (Adebiyi, Ezekiel, priority 2021, dated 2022).

Test: In vitro cytotoxicity with L-6 cells (Alamar Blue)
Format: cell-based
Conditions: L-6 cells (rat skeletal myoblasts), 70 h + 2 h Alamar Blue; read-out: Cytotoxicity L6 IC50
Experimental: Assays were performed in 96-well microtiter plates, each well containing 100 µl of RPMI 1640 medium supplemented with 1% L-glutamine (200mM) and 10% fetal bovine serum, and 4000 L-6 cells (a primary cell line derived from rat skeletal myoblasts). Serial drug dilutions of eleven 3-fold dilution steps covering a range from 100 to 0.002 µg/ml were prepared. After 70hours of incubation the plates were inspected under an inverted microscope to assure growth of the controls and sterile conditions. 10µl of Alamar Blue was then added to each well and the plates incubated for another 2 hours. Later they were read with a Spectramax Gemini XS microplate fluorometer (Molecular Devices Cooperation, Sunnyvale, CA, USA) using an excitation wave length of 536 nm and an emission wave length of 588 nm. The IC50 values were calculated by linear regression from the sigmoidal dose inhibition curves using SoftmaxPro software (Molecular Devices Cooperation, Sunnyvale, CA, USA). Podophyllotoxin (Sigma P4405) as control.
In the case of `CCCCONC(=O)c1ccc(NC(=N)N)cc1` [Compound 9d], the CC50 at 72 h is reported as greater than 100 µg/mL.
`CC(C)(C)C(=O)N(O)c1ccc(C#N)cc1` [Compound 15a] gave a CC50 at 72 h of 33.5 µg/mL.
`CC(=O)N(O)c1ccc(C(=N)NO)cc1` [Compound 10c] showed a CC50 at 72 h of 52.2 µg/mL.
For `COc1cc([C@@H]2c3cc4c(cc3[C@H](O)[C@H]3COC(=O)[C@H]23)OCO4)cc(OC)c1OC` [Podophyllotoxin, reference compound], the IC50 at 72 h was 0.006 µg/mL.
Work on `N=C(NO)c1ccc(NC(=O)NOCc2ccccc2)cc1` [Compound 2b] yielded a CC50 at 72 h of 43 µg/mL.
Work on `N=C(NO)c1ccc(S(=O)(=O)NO)cc1` [Compound 12b] yielded a CC50 at 72 h greater than 100 µg/mL.
Work on `NC(=O)c1ccc(S(=O)(=O)NO)cc1` [Compound 12c] yielded a CC50 at 72 h greater than 100 µg/mL.
With `O=C(NO)Nc1ccc(Cl)c(Cl)c1` [Compound 4b] the CC50 at 72 h was greater than 100 µg/mL.
In the case of `N=C(N)c1ccc(S(=O)(=O)NO)cc1` [Compound 12d], the CC50 at 72 h is reported as greater than 100 µg/mL.
Compound `Nc1nc2ncc(C(=O)O)nc2c(=O)[nH]1` [Compound P6CAH] has a CC50 at 72 h greater than 100 µg/mL.
Work on `Cc1ccc(S(=O)(=O)NC(C#N)C#N)cc1` [Compound 16a] yielded a CC50 at 72 h greater than 100 µg/mL.
Work on `N=C(NO)c1ccc(C(=O)NO)cc1` [Compound 1c] yielded a CC50 at 72 h of 56.1 µg/mL.
Work on `Nc1ccc(C(=O)NO)cc1` [Compound 9b] yielded a CC50 at 72 h of 43.4 µg/mL.
`O=C(NO)NC1CCCCC1` [Compound 7b] gave a CC50 at 72 h of 93 µg/mL.
With `N=C(NO)c1ccc(NC(=S)NOCc2ccccc2)cc1` [Compound 3c] the CC50 at 72 h was 57.6 µg/mL.
`N=C(NO)c1ccc(NC(=O)NO)cc1` [Compound 2c] gave a CC50 at 72 h greater than 100 µg/mL.
In the case of `N=C(N)c1ccc(N)cc1` [Compound 13c], the CC50 at 72 h is reported as 42.9 µg/mL.
`N#Cc1nc(-c2ccco2)c[n+]([O-])c1N` [Compound 16b] showed a CC50 at 72 h of 61.1 µg/mL.
